For one data set, the system named is AMPA. The data set can be described thus: Microelectrophoretic application of AMPA to spinal neurones in vivo. As to conditions: i.v., responses of single rat spinal neurones. The method, then:
The ability of these glycineB antagonists to act as NMDA receptor antagonists in vivo was assessed using i.v. administration against responses of single neurones in the rat spinal cord to microelectrophoretic application of AMPA and NMDA.

The nature of data set [1]: In vivo systemic and / or CNS availability.
The next data set has as its system organic acid transport. The data set can be described thus: Duration of anticonvulsive action with and without probenecid. It counts as in vivo, mouse. As to conditions: listed as 2/514. Here is the method: To assess NMDA receptor antagonistic properties of the tested agents by assessing anticonvulsive effects. Additionally the role of organic acid transporters in the elimination from the brain of tested agents was assessed by using an inhibitor, Probenicid, on the duration of anticonvulsive activity.
Male albino Swiss mice (19-21 g) housed 10-15 per cage were used for the NMDA lethality test (Leander et al., 1988). For pentylenetetrazol (PTZ)-induced convulsions male albino Swiss mice (25-34 g.) housed 40 per cage (58×38×20 cm) were used while in the maximal electroshock (MES) and motor impairment tests NMR female mice (18-28 g) housed 5 per cage were employed. All animals were kept with water and food ad libittum under a 12-h light-dark cycle (light on at 6 a.m.), and at a controlled temperature (20°±0.5° C.). All experiments were performed between 10 a.m. and 5 p.m. Tested agents were injected 15 min. i.p before the induction of convulsions if not stated otherwise (see below). Mrz 2/502 was dissolved in saline added with NaOH. Most other agents were dissolved in the following solution: 0.606 g Tris; 5.0 g. glucose; 0.5 g. Tween 80; and 95 ml water. The choline and tetramethylammonium salts were dissolved in distilled water.
MES (100 Hz, 0.5 sec shock duration, 50 mA shock intensity, 0.9 ms impulse duration, Ugo Basile) was applied through corneal electrodes. The presence of tonic convulsions was scored (tonic extension of hind paws with minimum angle to the body of 90°). In an additional experiment mice were injected with Probenicid (200 mg/kg) 30 min before administration of the tested agents to assess the role of organic acid transport in elimination (duration of action). The aim was to obtain ED50 s for all parameters scored using the Litchfield Wilcoxon (1949) test for quantal dose responses.
Moreover it seems that choline salts have a longer duration of action. Probenecid injection prolonged considerably the duration of anticonvulsive action of all agents tested. For example the half lives of 2/514 and 2/570 were around 40 and 80 minutes respectively in the absence of probenicid. In the presence of probenicid the half lives were prolonged to around 180 and 210 minutes respectively. Thus, it seems that organic acids transport in the choroid plexus out of the brain plays an important role in the short duration of action of the compounds tested..

For the compound `O=c1[nH]nc(O)c2c1cc1cc(F)ccc1[n+]2[O-]` [Mrz 2/516, 8-fluoro-4-hydroxy-1-oxo-1,2-dihydropyridazino[4,5-b]-quinoline 5-oxide], the “Microelectrophoretic AMPA ID50” value in the data set with AMPA (listed as 516) is given as 3.6 mg/kg. In addition, in data set [1], the “in vivo systemic and / or CNS availability versus associated class I compounds” value is listed as “much better”.

On to `O=c1[nH]nc(O)c2c1cc1cc(Cl)ccc1[n+]2[O-]` [Mrz 2/502, 8-chloro-4-hydroxy-1-oxo-1,2-dihydropyridazino[4,5-b]-quinoline 5-oxide], for which, in the data set with AMPA (listed as 502), the “Microelectrophoretic AMPA ID50” value stood at 4.9 mg/kg.

Regarding `O=c1[nH][nH]c(=O)c2nc3ccc(F)cc3cc12` [Mrz 2/519], the “Microelectrophoretic AMPA ID50” value in the data set on AMPA is above 16.0 mg/kg.

As for `O=c1[nH]nc(O)c2c1cc1cc(Br)ccc1[n+]2[O-]` [Mrz 2/514, 8-bromo-4-hydroxy-1-oxo-1,2-dihydropyridazino[4,5-b]-quinoline 5-oxide], the “half life of anticonvulsive action” value with organic acid transport (absence of probenecid) is given as “around 40 minutes”; in the data set with organic acid transport (presence of probenecid 200 mg/kg, 30 min before), “around 180 minutes”. Also, the “in vivo systemic and / or CNS availability versus associated class I compounds” value in data set [1] is recorded as “much better”.

Turning to `O=c1[nH][nH]c(=O)c2nc3ccc(Cl)cc3cc12` [Mrz 2/501], the “Microelectrophoretic AMPA ID50” value with AMPA is reported as above 16.0 mg/kg.

The values above are taken from patent US5776935A, “Pyrido-phtalazin diones and their use against neurological disorders associated with excitotoxicity and malfunctioning of glutamatergic neurotransmission” (Merz & Co. GmbH & Co., priority 1996, dated 1998).
